Measurements from patent publication US7417024B2, “Template-fixed peptidomimetics as inhibitors of serine proteases” (Polyphor Ltd., priority 2001, dated 2008).
Where a SMILES comes first, the peptide text is derived from it. Bridges are numbered along the chain shown (N, C = ends). [ ]: non-standard residue; d: D form.

Assays:
[1] = biological target: T1, Trypsin (Bos taurus, UniProt P00760); assay: Enzymatic assay, determination of antitrypsin activity (apparent Ki); type: biochemical; conditions: competitive tight-binding fit
T1 sequence (P00760 24-246): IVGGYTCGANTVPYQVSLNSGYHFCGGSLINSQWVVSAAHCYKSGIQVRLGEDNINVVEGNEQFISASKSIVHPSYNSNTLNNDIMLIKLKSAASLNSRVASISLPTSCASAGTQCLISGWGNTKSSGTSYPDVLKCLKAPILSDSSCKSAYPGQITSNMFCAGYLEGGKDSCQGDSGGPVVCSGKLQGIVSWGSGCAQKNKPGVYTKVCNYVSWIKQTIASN
Method: (§1) The active enzyme concentrations were calculated using the equation described by Hendersen (P. J. F. Hendersen, Biochem. J. 1972, 127, 321-333). The inhibitor concentrations were determined by quantitative amino acid analysis. All assays were repeated in quadruplicate.
Determination of Antitrypsin Activity
(§2) As above, except the substrate was N-succinyl-L-alanyl-L-alanyl-L-prolyl-L-phenylalanin-4-nitroanilide (N-succinyl—SEQ ID NO:16—4-nitroanilide; 1.6 mM).
(§3) Apparent Ki values were calculated by fitting the initial rate data to the following equation, which assumes competitive tight-binding inhibition (J. F. Williams, J. F. Morrison, Methods Enzymol. 1979, 63, 437-467): […]

[2] = biological target: Chymotrypsin (Homo sapiens, UniProt P17538); assay: Enzymatic assay, chymotrypsin inhibition (apparent Ki); type: biochemical; conditions: substrate N-succinyl-Ala-Ala-Pro-Phe-4-nitroanilide 1.6 mM
Method: as §1, §2, §3

[3] = biological target: Chymotrypsin; assay: enzyme inhibition, chromogenic substrate; apparent Ki fitted as competitive tight-binding inhibition
[4] = biological target: Trypsin; assay: as above
[5] = biological target: T2, Cathepsin G (human, UniProt P08311 21-244); assay: enzyme inhibition, Suc-Ala-Ala-Pro-Phe-pNA substrate, release of p-nitroanilide at 405 nm
T2 construct: the assay paragraph itself says only 'cathepsin G ... purchased from Calbiochem'; also called human cathepsin G
T2 sequence (looked up): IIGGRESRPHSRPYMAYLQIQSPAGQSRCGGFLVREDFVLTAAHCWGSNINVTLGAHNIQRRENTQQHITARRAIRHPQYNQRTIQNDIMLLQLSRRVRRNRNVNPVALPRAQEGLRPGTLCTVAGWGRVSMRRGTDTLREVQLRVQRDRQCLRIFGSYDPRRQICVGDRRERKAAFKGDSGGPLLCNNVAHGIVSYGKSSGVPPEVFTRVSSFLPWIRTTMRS
Method: Determination of Anti Cathepsin G Activity […] of a solution of cathepsin G (0.2 U/mL, corresponding to around 2 µM, purchased from Calbiochem) were incubated for 15 minutes with increasing concentrations of inhibitor. The assays were carried out at 37° C. in a total volume of 700 µl of HEPES buffer (pH 7.5; 0.1 mol/L) containing 0.05 mol/L CaCl_2. Then, 70 µl of the following substrate at 20 mM in DMSO were added (—N-succinyl-L-alanyl-L-alanyl-L-prolyl-L-phenylalanin-4-nitroanilide, (N-succinyl—SEQ ID NO:16—4-nitroanilide). The release of p-nitroanilide was monitored at 405 nm to determine the initial velocities of the reactions. Each measurement was reproduced three times (A. J. Barrett, Methods in Enzymology 1981, 80, 561-565).

Chain of Chymotrypsin (Homo sapiens, UniProt P17538) (P17538 19-263): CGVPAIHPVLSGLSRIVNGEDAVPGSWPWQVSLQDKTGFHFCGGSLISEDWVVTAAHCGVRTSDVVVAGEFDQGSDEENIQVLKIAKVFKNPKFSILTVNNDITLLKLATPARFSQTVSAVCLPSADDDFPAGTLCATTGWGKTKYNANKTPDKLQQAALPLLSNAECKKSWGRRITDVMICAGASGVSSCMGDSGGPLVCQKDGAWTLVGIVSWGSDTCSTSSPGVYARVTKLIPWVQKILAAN

Molecule | Ki [1] | Ki [2] | further results
CC[C@H](C)[C@@H]1NC(=O)[C@@H]2CCCN2C(=O)[C@@H]2CCCN2C(=O)[C@H]([C@@H](C)CC)NC(=O)[C@H](CO)NC(=O)[C@H](CCCCN)NC(=O)[C@H]([C@@H](C)O)NC(=O)[C@@H]2CCCN2C(=O)[C@H]2CCCN2C1=O [Ex. 1] (cyclo(TKSIPPI[dP]P)) | 100 nM | > 10000 nM | –
CC[C@H](C)[C@@H]1NC(=O)[C@@H]2CCCN2C(=O)[C@@H]2CCCN2C(=O)[C@H]([C@@H](C)CC)NC(=O)[C@H](CO)NC(=O)[C@H](CCCCN)NC(=O)[C@H](C)NC(=O)[C@@H]2CCCN2C(=O)[C@H]2CCCN2C1=O [Ex. 2] (cyclo(AKSIPPI[dP]P)) | 1500 nM | – | –
CC[C@H](C)[C@@H]1NC(=O)[C@@H]2CCCN2C(=O)[C@@H]2CCCN2C(=O)[C@H]([C@@H](C)CC)NC(=O)[C@H](CO)NC(=O)[C@H](C)NC(=O)[C@H]([C@@H](C)O)NC(=O)[C@@H]2CCCN2C(=O)[C@H]2CCCN2C1=O [Ex. 3] (cyclo(TASIPPI[dP]P)) | > 10000 nM | – | –
CC[C@H](C)[C@@H]1NC(=O)[C@@H]2CCCN2C(=O)[C@@H]2CCCN2C(=O)[C@H]([C@@H](C)CC)NC(=O)[C@H](C)NC(=O)[C@H](CCCCN)NC(=O)[C@H]([C@@H](C)O)NC(=O)[C@@H]2CCCN2C(=O)[C@H]2CCCN2C1=O [Ex. 4] (cyclo(TKAIPPI[dP]P)) | 700 nM | – | –
CC[C@H](C)[C@@H]1NC(=O)[C@@H]2CCCN2C(=O)[C@@H]2CCCN2C(=O)[C@H](C)NC(=O)[C@H](CO)NC(=O)[C@H](CCCCN)NC(=O)[C@H]([C@@H](C)O)NC(=O)[C@@H]2CCCN2C(=O)[C@H]2CCCN2C1=O [Ex. 5] (cyclo(TKSAPPI[dP]P)) | 1900 nM | – | –
CC[C@H](C)[C@@H]1NC(=O)[C@H](CO)NC(=O)[C@H](CCCCN)NC(=O)[C@H]([C@@H](C)O)NC(=O)[C@@H]2CCCN2C(=O)[C@H]2CCCN2C(=O)[C@H]([C@@H](C)CC)NC(=O)[C@@H]2CCCN2C(=O)[C@H](C)NC1=O [Ex. 6] (cyclo(TKSIAPI[dP]P)) | > 25000 nM | – | –
CC[C@H](C)[C@@H]1NC(=O)[C@H](C)NC(=O)[C@@H]2CCCN2C(=O)[C@H]([C@@H](C)CC)NC(=O)[C@H](CO)NC(=O)[C@H](CCCCN)NC(=O)[C@H]([C@@H](C)O)NC(=O)[C@@H]2CCCN2C(=O)[C@H]2CCCN2C1=O [Ex. 7] (cyclo(TKSIPAI[dP]P)) | 110 nM | – | –
CC[C@H](C)[C@@H]1NC(=O)[C@H](CO)NC(=O)[C@H](CCCCN)NC(=O)[C@H]([C@@H](C)O)NC(=O)[C@@H]2CCCN2C(=O)[C@H]2CCCN2C(=O)[C@H](C)NC(=O)[C@@H]2CCCN2C(=O)[C@@H]2CCCN2C1=O [Ex. 8] (cyclo(TKSIPPA[dP]P)) | 710 nM | – | –
CC[C@H](C)[C@@H]1NC(=O)[C@@H]2CCCN2C(=O)[C@@H]2CCCN2C(=O)[C@H]([C@@H](C)CC)NC(=O)[C@H](CO)NC(=O)[C@H](Cc2ccc(O)cc2)NC(=O)[C@H]([C@@H](C)O)NC(=O)[C@@H]2CCCN2C(=O)[C@H]2CCCN2C1=O [Ex. 9] (cyclo(TYSIPPI[dP]P)) | > 25000 nM | 4400 nM | –
CC[C@H](C)[C@@H]1NC(=O)[C@@H]2CCCN2C(=O)[C@@H]2CCCN2C(=O)[C@H]([C@@H](C)CC)NC(=O)[C@H](CO)NC(=O)[C@H](Cc2c[nH]c3ccccc23)NC(=O)[C@H]([C@@H](C)O)NC(=O)[C@@H]2CCCN2C(=O)[C@H]2CCCN2C1=O [Ex. 10] (cyclo(TWSIPPI[dP]P)) | > 20000 nM | 1400 nM | –
CC[C@H](C)[C@@H]1NC(=O)[C@@H]2CCCN2C(=O)[C@@H]2CCCN2C(=O)[C@H]([C@@H](C)CC)NC(=O)[C@H](CO)NC(=O)[C@H](Cc2ccccc2)NC(=O)[C@H]([C@@H](C)O)NC(=O)[C@@H]2CCCN2C(=O)[C@H]2CCCN2C1=O [Ex. 11] (cyclo(TFSIPPI[dP]P)) | > 20000 nM | 4700 nM | –
CC[C@H](C)[C@@H]1NC(=O)[C@@H]2CCCN2C(=O)[C@@H]2CCCN2C(=O)[C@H]([C@@H](C)CC)NC(=O)[C@H](CO)NC(=O)[C@H](CCCCN)NC(=O)[C@H]([C@@H](C)O)NC(=O)[C@@H]2CSSC[C@H](NC1=O)C(=O)N[C@@H](Cc1ccccc1)C(=O)N1CCC[C@@H]1C(=O)N1CCC[C@H]1C(=O)N[C@@H](CCCNC(=N)N)C(=O)N2 [Ex. 15] (cyclo(RCTKSIPPICF[dP]P); disulfide 2-10) | 21 nM | 3800 nM | –
cyclo(RCTKSIPPICF[dP]P) (disulfide 2-10; SMILES CC[C@H](C)[C@@H]1NC(=O)[C@@H]2CCCN2C(=O)[C@@H]2CCCN2C(=O)[C@H]([C@@H](C)CC)NC(=O)[C@H](CO)NC(=O)[C@H](CCCCN)NC(=O)[C@H]([C@@H](C)O)NC(=O)[C@@H]2CSSC[C@H](NC1=O)C(=O)N[C@@H](Cc1ccccc1)C(=O)N1CCC[C@@H]1C(=O)N1CCC[C@H]1C(=O)N[C@@H](CCCNC(=N)N)C(=O)N2, n=11 mimetic made by procedure 3 (disulfide between P2 and P10)) [Ex. 15] | – | – | Ki [3]: 3800 nM; Ki [4]: 21 nM; Ki [5]: 10000 nM
cyclo(TKSIPPI[dP]P) (SMILES CC[C@H](C)[C@@H]1NC(=O)[C@@H]2CCCN2C(=O)[C@@H]2CCCN2C(=O)[C@H]([C@@H](C)CC)NC(=O)[C@H](CO)NC(=O)[C@H](CCCCN)NC(=O)[C@H]([C@@H](C)O)NC(=O)[C@@H]2CCCN2C(=O)[C@H]2CCCN2C1=O, Template-fixed beta-hairpin mimetic, cyclic; parent of the Ala scan) [Ex. 1] | – | – | Ki [4]: 100 nM; Ki [5]: 100000 nM
